Reference: patent US12558356B2, “Immunophilin binding agents and uses thereof” (The Regents of the University of California, priority 2019, dated 2026)
Where two headings read alike, the source gives them in different places.

How the values were obtained:
p-S6 level in MCF7 cells = assay: Western blot of p-S6 level in MCF7 cells after combination treatment with Rapa/Rapalink and candidate compound (blockade score); format: cell-based; settings: 24 h, p-S6 level as fraction of DMSO control; for Rapamycin Blockade: 10 nM Rapa + 10 μM candidate compound; for RapaLink-1 Blockade: 10 nM Rapalink + 10 μM candidate compound
FKBP12 = FKBP12 (Homo sapiens (Human), UniProt P62942); assay: FKBP12 binding assay (fluorescence polarization)
Chain of FKBP12 (P62942 whole entry): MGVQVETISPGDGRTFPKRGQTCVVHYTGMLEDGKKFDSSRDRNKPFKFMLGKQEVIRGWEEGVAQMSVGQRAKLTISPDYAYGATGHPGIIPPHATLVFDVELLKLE

[1] = system: mTOR signaling in brain and skeletal muscle; assay: In vivo brain/periphery mTOR inhibition in mouse model, blocker combined with rapamycin or RapaLink-1; settings: combination with rapamycin; muscle and brain
[2] = system: p-Tyr signaling in Jurkat cells; assay: Phosphotyrosine / TCR signaling in Jurkat cells (Western blot); format: cell-based; settings: Jurkat cells, 100 nM, 1 h, washed 3 times with PBS
Description: Jurkat cells (1×10^6/mL) were treated with 100 nM of the indicated compounds for 1 h, then were washed 3 times with PBS and resuspended in culture media. Samples were taken at the indicated time points and lysed immediately.

Row | Kd (FKBP12; read-out: Kd FKBP12) [nM] | Molecule | Rapamycin Blockade (p-S6 level in MCF7 cells) | RapaLink-1 Blockade (p-S6 level in MCF7 cells) | also measured
1 |  | CCC(C)(C)C(=O)C(=O)N1CCCC[C@H]1C(=O)O[C@H](CCc1ccc(OC)c(OC)c1)c1cccc(N)c1 [SLF, reference compound] | 3 (>70%) | 0 (<20%) | 
2 | 95 | CCC(C)(C)C(=O)C(=O)N1CCCC[C@H]1C(=O)O[C@H](CCc1ccc(OC)c(OC)c1)c1cccc(NC(=O)C[N+](C)(C)C)c1 [ZZY01-025] | 1 (20-40%) |  | 
3 | 9.4 | CCC(C)(C)C(=O)C(=O)N1CCCC[C@H]1C(=O)O[C@H](CCc1ccc(OC)c(OC)c1)c1cccc(OCCN)c1 [ZZY01-038] | 1 (20-40%) |  | 
4 | 21.3 | CCC(C)(C)C(=O)C(=O)N1CCCC[C@H]1C(=O)O[C@H](CCc1ccc(OC)c(OC)c1)c1cccc(NC(=O)CN)c1 [ZZY01-040] | 3 (>70%) |  | 
5 | 15 | CCC(C)(C)C(=O)C(=O)N1CCCC[C@H]1C(=O)O[C@H](CCc1ccc(OC)c(OC)c1)c1cccc(NC(=O)CN2CCOCC2)c1 [ZZY01-043] | 3 (>70%) |  | 
6 | 12.7 | CCC(C)(C)C(=O)C(=O)N1CCCC[C@H]1C(=O)O[C@H](CCc1ccc(OC)c(OC)c1)c1cccc(NC(=O)CN(C)C)c1 [ZZY01-044] | 3 (>70%) |  | 
7 |  | CCC(C)(C)C(=O)C(=O)N1CCCC[C@H]1C(=O)O[C@H](CCc1ccc(OC)c(OC)c1)c1cccc(NC(=O)[C@H](C)N)c1 [ZZY01-059] | 3 (>70%) |  | 
8 |  | CCC(C)(C)C(=O)C(=O)N1CCCC[C@H]1C(=O)O[C@H](CCc1ccc(OC)c(OC)c1)c1cccc(NCC(=O)O)c1 [ZZY01-060A] | 0 (<20%) |  | 
9 | 75 | CCC(C)(C)C(=O)C(=O)N1CCCC[C@H]1C(=O)O[C@H](CCc1ccc(OC)c(OC)c1)c1cccc(N(CC(=O)O)CC(=O)O)c1 [ZZY01-060B] | 1 (20-40%) |  | 
10 | 37.8 | CCC(C)(C)C(=O)C(=O)N1CCCC[C@H]1C(=O)O[C@H](CCc1ccc(OC)c(OC)c1)c1cccc(NC(=O)CNC(=N)N)c1 [ZZY01-065] | 2 (40%-70%) |  | 
11 | 21 | CCC(C)(C)C(=O)C(=O)N1CCCC[C@H]1C(=O)O[C@H](CCc1ccc(OC)c(OC)c1)c1cccc(NC(=O)CNN)c1 [ZZY01-070] | 1 (20-40%) |  | 
12 | 12.5 | CCC(C)(C)C(=O)C(=O)N1CCCC[C@H]1C(=O)O[C@H](CCc1ccc(OC)c(OC)c1)c1cccc(NC(=O)CN2CCN(C)CC2)c1 [ZZY01-072] | 3 (>70%) |  | 
13 |  | CCC(C)(C)C(=O)C(=O)N1CCCC[C@H]1C(=O)O[C@H](CCc1ccc(OC)c(OC)c1)c1cccc(NC(=O)CCC(=O)O)c1 [ZZY01-083] | 1 (20-40%) |  | 
14 | 64 | C=CC(=O)Nc1cccc([C@@H](CCc2ccc(OC)c(OC)c2)OC(=O)[C@@H]2CCCCN2C(=O)C(=O)C(C)(C)CC)c1 [ZZY02-014] | 3 (>70%) |  | 
15 | 36.4 | CCC(C)(C)C(=O)C(=O)N1CCCC[C@H]1C(=O)O[C@H](CCc1ccc(OC)c(OC)c1)c1cccc(NCCN)c1 [ZZY02-032] | 0 (<20%) |  | 
16 |  | CCC(C)(C)C(=O)C(=O)N1CCCC[C@H]1C(=O)O[C@H](CCc1ccc(OC)c(OC)c1)c1cccc(NC(=O)CCl)c1 [ZZY02-033] | 0 (<20%) |  | 
17 | 63.8 | CCC(C)(C)C(=O)C(=O)N1CCCC[C@H]1C(=O)O[C@H](CCc1ccc(OC)c(OC)c1)c1cccc(NC(=O)CS)c1 [ZZY02-055] | 0 (<20%) |  | 
18 | 6 | CCC(C)(C)C(=O)C(=O)N1CCCC[C@H]1C(=O)O[C@H](CCc1ccc(OC)c(OC)c1)c1cccc(NC(=O)CN=[N+]=[N-])c1 [ZZY02-096] | 2 (40%-70%) |  | 

Row | Kd (FKBP12; read-out: Kd FKBP12) [nM] | Molecule | Rapamycin Blockade (p-S6 level in MCF7 cells) | RapaLink-1 Blockade (p-S6 level in MCF7 cells) | also measured
19 | 43.7 | CCC(C)(C)C(=O)C(=O)N1CCCC[C@H]1C(=O)O[C@H](CCc1ccc(OC)c(OC)c1)c1cccc(NC(=O)CCOCCOCCN)c1 [ZZY03-077] | 3 (>70%) |  | 
20 | 31.1 | CCC(C)(C)C(=O)C(=O)N1CCCC[C@H]1C(=O)O[C@H](CCc1ccc(OC)c(OC)c1)c1cccc(NC(=O)Cc2ccccn2)c1 [ZZY03-083] | 3 (>70%) | 0 (<20%) | 
21 | 18.6 | CCC(C)(C)C(=O)C(=O)N1CCCC[C@H]1C(=O)O[C@H](CCc1ccc(OC)c(OC)c1)c1cccc(NC(=O)CCOCCN)c1 [ZZY03-084] | 2 (40%-70%) |  | 
22 | 28.8 | CCC(C)(C)C(=O)C(=O)N1CCCC[C@H]1C(=O)O[C@H](CCc1ccc(OC)c(OC)c1)c1cccc(NC(=O)Cc2cccc[n+]2[O-])c1 [ZZY03-087] | 3 (>70%) | 0 (<20%) | In Vivo [1]: Blocks rapamycin in muscle, potentiates rapamycin in brain
23 | 37.3 | CCC(C)(C)C(=O)C(=O)N1CCCC[C@H]1C(=O)O[C@H](CCc1ccc(OC)c(OC)c1)c1cccc(NC(=O)CNc2ccccn2)c1 [ZZY03-091] | 2 (40%-70%) |  | 
24 |  | CO[C@H]1C/C(C)=C/[C@@H](CCCSCCN)C(=O)C[C@H](O)[C@@H](C)[C@@H](/C(C)=C/[C@@H]2CC[C@@H](O)[C@H](OC)C2)OC(=O)[C@@H]2CCCCN2C(=O)C(=O)[C@]2(O)O[C@H]([C@@H](OC)C1)[C@@H](OC)C[C@H]2C [ZZY05-011] | 3 (>70%) | 3 (>70%) | Kd (FKBP12): 0.69 nM
25 |  | CO[C@H]1C/C(C)=C/[C@@H](C/C=C/C(=O)O)C(=O)C[C@H](O)[C@@H](C)[C@@H](/C(C)=C/[C@@H]2CC[C@@H](O)[C@H](OC)C2)OC(=O)[C@@H]2CCCCN2C(=O)C(=O)[C@]2(O)O[C@H]([C@@H](OC)C1)[C@@H](OC)C[C@H]2C [ZZY05-012] | 0 (<20%) | 0 (<20%) | Kd (FKBP12): 0.39 nM
26 |  | CO[C@H]1C/C(C)=C/[C@@H](CCCSCCN(C)C)C(=O)C[C@H](O)[C@@H](C)[C@@H](/C(C)=C/[C@@H]2CC[C@@H](O)[C@H](OC)C2)OC(=O)[C@@H]2CCCCN2C(=O)C(=O)[C@]2(O)O[C@H]([C@@H](OC)C1)[C@@H](OC)C[C@H]2C [ZZY05-013] | 3 (>70%) | 3 (>70%) | Kd (FKBP12): 1.36 nM
27 | 1.49 | CO[C@H]1C/C(C)=C/[C@@H](CCCC(=O)O)C(=O)C[C@H](O)[C@@H](C)[C@@H](/C(C)=C/[C@@H]2CC[C@@H](O)[C@H](OC)C2)OC(=O)[C@@H]2CCCCN2C(=O)C(=O)[C@]2(O)O[C@H]([C@@H](OC)C1)[C@@H](OC)C[C@H]2C [ZZY05-020] | 2 (40%-70%) | 0 (<20%) | 
28 |  | CO[C@H]1C/C(C)=C/[C@@H](CCCC(=O)N2CCN(c3cc(Nc4ncc(C(=O)Nc5c(C)cccc5Cl)s4)nc(C)n3)CC2)C(=O)C[C@H](O)[C@@H](C)[C@@H](/C(C)=C/[C@@H]2CC[C@@H](O)[C@H](OC)C2)OC(=O)[C@@H]2CCCCN2C(=O)C(=O)[C@]2(O)O[C@H]([C@@H](OC)C1)[C@@H](OC)C[C@H]2C [ZZY05-022] |  |  | durability of effect after washout [2]: durable after washout
29 |  | CO[C@H]1C/C(C)=C/[C@@H](CCCSC[C@H](N)C(=O)O)C(=O)C[C@H](O)[C@@H](C)[C@@H](/C(C)=C/[C@@H]2CC[C@@H](O)[C@H](OC)C2)OC(=O)[C@@H]2CCCCN2C(=O)C(=O)[C@]2(O)O[C@H]([C@@H](OC)C1)[C@@H](OC)C[C@H]2C [ZZY05-037] |  | 1 (20-40%) | Kd (FKBP12): 8.7 nM
30 |  | CO[C@H]1C/C(C)=C/[C@@H](C/C=C/c2ccncc2)C(=O)C[C@H](O)[C@@H](C)[C@@H](/C(C)=C/[C@@H]2CC[C@@H](O)[C@H](OC)C2)OC(=O)[C@@H]2CCCCN2C(=O)C(=O)[C@]2(O)O[C@H]([C@@H](OC)C1)[C@@H](OC)C[C@H]2C [ZZY05-050] |  | 3 (>70%) | Kd (FKBP12): 3.6 nM
31 | 0.62 | CO[C@H]1C/C(C)=C/[C@@H](C/C=C/c2cccc[n+]2[O-])C(=O)C[C@H](O)[C@@H](C)[C@@H](/C(C)=C/[C@@H]2CC[C@@H](O)[C@H](OC)C2)OC(=O)[C@@H]2CCCCN2C(=O)C(=O)[C@]2(O)O[C@H]([C@@H](OC)C1)[C@@H](OC)C[C@H]2C [ZZY05-060] |  | 1 (20-40%) | 
32 | 0.21 | CO[C@H]1C/C(C)=C/[C@@H](C/C=C/c2cc[n+]([O-])cc2)C(=O)C[C@H](O)[C@@H](C)[C@@H](/C(C)=C/[C@@H]2CC[C@@H](O)[C@H](OC)C2)OC(=O)[C@@H]2CCCCN2C(=O)C(=O)[C@]2(O)O[C@H]([C@@H](OC)C1)[C@@H](OC)C[C@H]2C [ZZY05-061] |  | 0 (<20%) | 
33 | 0.2 | CO[C@H]1C/C(C)=C/[C@@H](CCCC(=O)Nc2ccccn2)C(=O)C[C@H](O)[C@@H](C)[C@@H](/C(C)=C/[C@@H]2CC[C@@H](O)[C@H](OC)C2)OC(=O)[C@@H]2CCCCN2C(=O)C(=O)[C@]2(O)O[C@H]([C@@H](OC)C1)[C@@H](OC)C[C@H]2C [ZZY05-064] |  | 3 (>70%) | 
34 |  | CO[C@H]1C/C(C)=C/[C@@H](CCCc2cc[n+]([O-])cc2)C(=O)C[C@H](O)[C@@H](C)[C@@H](/C(C)=C/[C@@H]2CC[C@@H](O)[C@H](OC)C2)OC(=O)[C@@H]2CCCCN2C(=O)C(=O)[C@]2(O)O[C@H]([C@@H](OC)C1)[C@@H](OC)C[C@H]2C [ZZY05-086] |  | 3 (>70%) | Kd (FKBP12): 1.6 nM
35 |  | tacrolimus [FK506, reference compound] | 3 (>70%) | 3 (>70%) | 

Row | Molecule | Kd (FKBP12; read-out: Kd FKBP12) [nM] | Rapamycin Blockade (p-S6 level in MCF7 cells) | RapaLink-1 Blockade (p-S6 level in MCF7 cells) | also measured
36 | CCC(C)(C)C(=O)C(=O)N1CCCC[C@H]1C(=O)O[C@H](CCc1ccc(OC)c(OC)c1)c1cccc(OCC(=O)O)c1 [ZZY01-041] | 38 | 0 (<20%) |  | 
